In PubChem BioAssay (NCI) one finds TGI and GI50 data, which are given here for twelve compounds.

Among the test systems are UO-31 renal; SF-539 CNS; A549 NSCLC; MALME-3M melanoma; CCRF-CEM leukemia; SK-OV-3 ovarian; A498 renal; SNB-19 CNS; SK-MEL-5 melanoma; HOP-92 NSCLC.
Holding throughout (experiment): NCI-60 cell line screen, 48 h

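Protocol summary: plate cells (96-well), add compound at 5 concentrations, incubate 48 h, interpolate endpoints linearly. Here, GI50 denotes the concentration required for 50% inhibition of growth. The concentration for full growth arrest is given as TGI.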

With `CSC[C@H](NC(=O)COc1cccc2cnccc12)C(=O)NC(Cc1ccccc1)C(O)C(=O)N1CSC[C@H]1C(=O)NC(C)(C)C` (some centres undefined), the TGI with UO-31 renal is more than 100 µM; in the experiment on SF-539 CNS, 31.4 µM; with A549 NSCLC it was more than 100 µM; with MALME-3M melanoma, more than 100 µM; in the experiment with CCRF-CEM leukemia, more than 100 µM; in the experiment with SK-OV-3 ovarian, more than 100 µM. Moreover, the TGI in the experiment on A498 renal and in the experiment with SNB-19 CNS was more than 100 µM each time.
On to `C=C(CN(C)Cc1ccccc1)c1ccc(NC(=O)c2ccc(C(=C)CN(C)Cc3ccccc3)cc2)cc1`, for which the GI50 in the experiment with UO-31 renal was 76.2 µM; in the experiment on SF-539 CNS, 68.8 µM; in the experiment with A549 NSCLC it was 77.8 µM; with MALME-3M melanoma, more than 100 µM; in the experiment with CCRF-CEM leukemia, more than 100 µM; in the experiment with SK-OV-3 ovarian, 33.7 µM. Also, the GI50 was 68.3 µM in the experiment with SK-MEL-5 melanoma, 20.8 µM in the experiment on A498 renal and 25.5 µM in the experiment with SNB-19 CNS. In addition, the TGI in the experiment on UO-31 renal, in the experiment on SF-539 CNS, with A549 NSCLC, in the experiment on MALME-3M melanoma, in the experiment on CCRF-CEM leukemia and in the experiment on SK-OV-3 ovarian was more than 100 µM each time. For the same compound, the TGI in the experiment with SK-MEL-5 melanoma is more than 100 µM; in the experiment on A498 renal it was 48.9 µM; in the experiment on SNB-19 CNS, 80.1 µM.
In the case of `C[N+](C)(C)CC(=O)N/N=C(/Cc1cc(=O)oc2cc(O)ccc12)C(=O)Nc1ccc(Cl)cc1`, the TGI with UO-31 renal, in the experiment on SF-539 CNS, in the experiment with A549 NSCLC, with MALME-3M melanoma, with CCRF-CEM leukemia and with SK-OV-3 ovarian was more than 100 µM each time. Also, the TGI in the experiment on SK-MEL-5 melanoma, in the experiment with A498 renal and with SNB-19 CNS was more than 100 µM each time.
`COc1ccc(Cl)cc1NC(=O)c1ccc(NC2=C(Cl)C(=O)N(Cc3ccccc3)C2=O)cc1`: the GI50 with UO-31 renal was more than 100 µM; with SF-539 CNS, more than 100 µM; in the experiment on A549 NSCLC it was more than 100 µM; in the experiment with MALME-3M melanoma, more than 100 µM; in the experiment on CCRF-CEM leukemia, 3.99 µM; in the experiment with SK-MEL-5 melanoma, 47.4 µM. Besides, the GI50 in the experiment with A498 renal and in the experiment with SNB-19 CNS was more than 100 µM throughout. The TGI with UO-31 renal is more than 100 µM; in the experiment with SF-539 CNS, more than 100 µM; in the experiment on A549 NSCLC, more than 100 µM; in the experiment on MALME-3M melanoma, more than 100 µM; in the experiment on CCRF-CEM leukemia, 94.5 µM; with SK-MEL-5 melanoma it was more than 100 µM. Moreover, the TGI with A498 renal and with SNB-19 CNS was more than 100 µM each time.
Take `O=C1C=C(c2c(O)ccc3ccccc23)c2cc(O)ccc2C1=O`: the TGI in the experiment on UO-31 renal was found to be 36.5 µM; in the experiment on HOP-92 NSCLC, 31.9 µM; in the experiment on SF-539 CNS, 39.3 µM; in the experiment with A549 NSCLC it was 36.7 µM; in the experiment on MALME-3M melanoma, 34.2 µM; with SK-OV-3 ovarian, 38.5 µM. Also, the TGI in the experiment with SK-MEL-5 melanoma was 28.6 µM; in the experiment on SNB-19 CNS it was 31.3 µM.
As to `CC1=C(C(=O)Nc2ccccc2)C(c2ccc(Cl)c(Cl)c2)C(C(=O)Nc2ccccc2)=C(C)N1`, the TGI was 26 µM in the experiment on UO-31 renal; 32.3 µM in the experiment with SF-539 CNS; 25.3 µM with A549 NSCLC; 26.7 µM in the experiment on MALME-3M melanoma; 71.4 µM in the experiment with CCRF-CEM leukemia; 31.6 µM in the experiment on SK-OV-3 ovarian. For the same compound, the results for the TGI in the experiment on SK-MEL-5 melanoma, with A498 renal and in the experiment on SNB-19 CNS were 28.7 µM, 33.4 µM and 32.6 µM, respectively.
Consider `CCCCCCCCCCCC[N+]12CC[N+](CCN)(CC1)CC2`, for which the TGI in the experiment with UO-31 renal, in the experiment on HOP-92 NSCLC, in the experiment on SF-539 CNS, with A549 NSCLC, in the experiment with MALME-3M melanoma and in the experiment with CCRF-CEM leukemia was more than 100 µM in each case. Further, the TGI was more than 100 µM in the experiment with SK-OV-3 ovarian, more than 100 µM in the experiment with SK-MEL-5 melanoma and 64.3 µM with SNB-19 CNS.
For `c1ccc2c(c1)CCc1c(-c3ccncc3)n[nH]c1-2`, the TGI in the experiment on SF-539 CNS was more than 100 µM; in the experiment with A549 NSCLC, more than 100 µM; in the experiment on MALME-3M melanoma it was more than 100 µM; in the experiment with CCRF-CEM leukemia, 61.7 µM; in the experiment on SK-OV-3 ovarian it was 93.6 µM; in the experiment with SK-MEL-5 melanoma it was 32.1 µM. In addition, the TGI is 79.8 µM in the experiment with A498 renal and more than 100 µM with SNB-19 CNS.
Consider `COc1cc(/C=C2\CCCCC3=C2N=C2SC(C)=CN2C3c2cc(OC)c(OC)c(OC)c2)cc(OC)c1OC` (centres undefined), for which the GI50 was 22.6 µM with UO-31 renal; 0.609 µM in the experiment with HOP-92 NSCLC; more than 100 µM in the experiment with SF-539 CNS; 20.4 µM with A549 NSCLC; 15.2 µM with MALME-3M melanoma; 34.7 µM in the experiment on CCRF-CEM leukemia. Further, the GI50 in the experiment on SK-OV-3 ovarian was 6.23 µM; in the experiment on SK-MEL-5 melanoma, 0.077 µM; in the experiment with SNB-19 CNS it was more than 100 µM. Also, the TGI in the experiment on UO-31 renal, in the experiment with HOP-92 NSCLC, in the experiment with SF-539 CNS, in the experiment with A549 NSCLC, in the experiment on MALME-3M melanoma and in the experiment on CCRF-CEM leukemia was more than 100 µM in each case. For the same compound, the TGI was more than 100 µM with SK-OV-3 ovarian, 21 µM with SK-MEL-5 melanoma and more than 100 µM in the experiment with SNB-19 CNS.
As for `CCSc1nc(N=Cc2ccccc2O)c2cn[nH]c2n1`, the GI50 was 61.6 µM in the experiment with UO-31 renal; 34.2 µM with SF-539 CNS; 46.2 µM with A549 NSCLC; 0.137 µM with MALME-3M melanoma; more than 100 µM with SK-OV-3 ovarian; 23.8 µM in the experiment with SK-MEL-5 melanoma. Also, the results for the GI50 in the experiment with A498 renal and in the experiment with SNB-19 CNS were 4.61 µM and 56.1 µM, respectively. In addition, the TGI in the experiment on UO-31 renal was more than 100 µM; with SF-539 CNS it was more than 100 µM; with A549 NSCLC it was more than 100 µM; in the experiment with MALME-3M melanoma, 34.7 µM; in the experiment on SK-OV-3 ovarian, more than 100 µM; in the experiment on SK-MEL-5 melanoma it was 65.9 µM. Besides, the results for the TGI in the experiment with A498 renal and in the experiment on SNB-19 CNS were 29.2 µM and more than 100 µM, respectively.
As to `CNc1nc(N)nc(Nc2ccc(I)cc2)c1N=O`, the TGI in the experiment on UO-31 renal, in the experiment on SF-539 CNS, with A549 NSCLC, with MALME-3M melanoma, in the experiment with CCRF-CEM leukemia and in the experiment on SK-MEL-5 melanoma was more than 100 µM in each case. In the experiment on SNB-19 CNS, this compound had a TGI of more than 100 µM.
On to `NC(N)=Nc1nc2ccccc2o1`, for which the GI50 in the experiment with UO-31 renal was 79.4 µM; in the experiment on HOP-92 NSCLC, more than 100 µM; with SF-539 CNS it was more than 100 µM; in the experiment with A549 NSCLC, more than 100 µM; with MALME-3M melanoma, more than 100 µM; in the experiment on CCRF-CEM leukemia, more than 100 µM. The GI50 in the experiment on SK-OV-3 ovarian, with SK-MEL-5 melanoma and in the experiment on SNB-19 CNS was more than 100 µM throughout. The TGI with UO-31 renal, with HOP-92 NSCLC, in the experiment on SF-539 CNS, with A549 NSCLC, with MALME-3M melanoma and in the experiment on CCRF-CEM leukemia was more than 100 µM throughout. Also, the TGI with SK-OV-3 ovarian, in the experiment with SK-MEL-5 melanoma and with SNB-19 CNS was more than 100 µM throughout.
